{
  "source": "patent US20220409620A1",
  "about": "“REDUCING IMMUNOGENICITY TO PEGLOTICASE” (Horizon Pharma Rheumatology LLC, priority 2016, published 2022)",
  "tested_on": "adult patients with uncontrolled gout",
  "experiment": "Serum uric acid (sUA) levels and sUA responder rate, open-label study of pegloticase with MTX (MIRROR OL)",
  "assay_type": "in vivo, human",
  "conditions": "Month 6 sUA Responders",
  "description": "The primary objective is to estimate the response rate during Month 6 (Weeks 20, 22, and 24), as measured by the sustained normalization of serum uric acid (SUA) to <6 mg/dL for at least 80% of the time during Month 6 in subjects receiving KXX with MTX.\nThe primary efficacy outcome endpoint is the sustained normalization of SUA to <6 mg/dL for at least 80% of the time during month 6 (weeks 20, 22, and 24) in subjects receiving KXX with MTX. […] Participants who achieve this endpoint were classified as “responders.” Serum uric acid (SUA) responders may also be defined as participants achieving and maintaining SUA <6 mg/dL for at least 80% of the time during Month 6 (Weeks 20, 22, and 24).\nBlood samples may be collected prior to each pegloticase infusion for measurement of SUA levels using the Beckman Coulter AU System Uric Acid procedure. Participants were declared “non-responders” if there were SUA measures >6 mg/dL at 2 consecutive study visits beginning with the week 2 visit. […] This assumption and subsequent discontinuation of pegloticase was consistent with the protocol of large phase III randomized controlled trials and the product label. A formal stopping rule was 2 occasions of SUA levels of greater than 6 mg/dL.\nClinical Chemistry—Blood samples were collected prior to each pegloticase infusion for measurement of SUA levels (primary efficacy parameter) using the Beckman Coulter AU System Uric Acid procedure. In this procedure uric acid is converted to hydrogen peroxide. Hydrogen peroxide reacts with reagent to produce a chromophore which is read bichromatically at 660/800 nm. The amount of dye formed is proportional to the uric acid concentration in the sample.\nSerum samples for measurement of SUA levels were collected at the Screening Visit, the Week −4 Visit (prior to the first dose of MTX), and the Week −2 Visit during the MTX Run-in Period; within 48 hours prior to each pegloticase infusion and after the end of each pegloticase infusion prior to discharge from the site during the Pegloticase+IMM Period; at the non-infusion Week 52/End of Study/Early Termination Visits and at the Post Treatment 3 and 6 Month Follow-up Visits. Additional serum samples for SUA levels were collected at optional non-infusion (Frequent Sampling) Visits at Weeks 1 and 7. […] Subjects with SUA level >6 mg/dL at 2 consecutive visits beginning at Week 2 visit discontinued treatment, completed the End of Pegloticase Infusion Visit procedures within 2 weeks and continued the subject visits according to the protocol (without treatment).\nEfficacy analyses were performed using the modified intention-to-treat (mITT) population, defined as all enrolled subjects who received ≥1 dose of pegloticase. The proportion of Month 6 responders was summarized, along with a 95% confidence interval for the proportion. The proportion of Month 3 and overall (Months 3 and 6 combined) responders was analyzed similarly.\nA subject was declared a non-responder if the subject had SUA level >6 mg/dL at 2 consecutive study visits beginning with the Week 2 Visit. In addition, a subject who withdraws from study treatment for any reason after the first dose of pegloticase in the KXX+MTX Period and prior to Month 6 (for the primary endpoint) or Month 3 (for the secondary endpoint) was considered a non-responder if SUA values were not collected at the planned time points.\nPatients were administered oral MTX (15 mg/week) and folate (1 mg/day) 4 weeks prior to the first pegloticase infusion (Day 1) and throughout the pegloticase treatment period. Blood was drawn prior to each infusion to measure sUA level, monitor clinical parameters, and examine for ADA development. All patients followed typical IR prophylaxis protocols (fexofenadine one day before and the morning of each infusion and acetaminophen and IV corticosteroid the morning of each infusion).",
  "data": [
    {"substance": "pegloticase", "values": [
      {"measurement": "Serum Uric Acid, Observed, Median", "setting": "Week 14-Post-Infusion, n=10", "value": 0.30, "unit": "mg/dL"},
      {"measurement": "sUA <6 mg/dL, n (%)", "setting": "Week 14-Post-Infusion, n=10", "value": "10 (100%)"},
      {"measurement": "Serum Uric Acid, Change from Baseline, Mean (SD)", "setting": "Week 14-Pre-Infusion, n=11", "value": "−8.97 (2.810) mg/dL"},
      {"measurement": "Serum Uric Acid, Change from Baseline, Median", "setting": "Week 14-Pre-Infusion, n=11", "value": -8.80, "unit": "mg/dL"},
      {"measurement": "Serum Uric Acid, Observed, Mean (SD)", "setting": "Week 14-Pre-Infusion, n=11", "value": "0.30 (0.000) mg/dL"},
      {"measurement": "Serum Uric Acid, Observed, Median", "setting": "Week 14-Pre-Infusion, n=11", "value": 0.30, "unit": "mg/dL"},
      {"measurement": "sUA <6 mg/dL, n (%)", "setting": "Week 14-Pre-Infusion, n=11", "value": "11 (100%)"},
      {"measurement": "Serum Uric Acid, Change from Baseline, Mean (SD)", "setting": "Week 16-Post-Infusion, n=11", "value": "−8.97 (2.810) mg/dL"},
      {"measurement": "Serum Uric Acid, Change from Baseline, Median", "setting": "Week 16-Post-Infusion, n=11", "value": -8.80, "unit": "mg/dL"},
      {"measurement": "Serum Uric Acid, Observed, Mean (SD)", "setting": "Week 16-Post-Infusion, n=11", "value": "0.30 (0.000) mg/dL"},
      {"measurement": "Serum Uric Acid, Observed, Median", "setting": "Week 16-Post-Infusion, n=11", "value": 0.30, "unit": "mg/dL"},
      {"measurement": "sUA <6 mg/dL, n (%)", "setting": "Week 16-Post-Infusion, n=11", "value": "11 (100%)"},
      {"measurement": "Serum Uric Acid, Change from Baseline, Mean (SD)", "setting": "Week 16-Pre-Infusion, n=11", "value": "−8.97 (2.810) mg/dL"},
      {"measurement": "Serum Uric Acid, Change from Baseline, Median", "setting": "Week 16-Pre-Infusion, n=11", "value": -8.80, "unit": "mg/dL"},
      {"measurement": "Serum Uric Acid, Observed, Mean (SD)", "setting": "Week 16-Pre-Infusion, n=11", "value": "0.30 (0.000) mg/dL"},
      {"measurement": "Serum Uric Acid, Observed, Median", "setting": "Week 16-Pre-Infusion, n=11", "value": 0.30, "unit": "mg/dL"},
      {"measurement": "sUA <6 mg/dL, n (%)", "setting": "Week 16-Pre-Infusion, n=11", "value": "11 (100%)"},
      {"measurement": "Serum Uric Acid, Change from Baseline, Mean (SD)", "setting": "Week 18-Post-Infusion, n=11", "value": "−8.97 (2.810) mg/dL"},
      {"measurement": "Serum Uric Acid, Change from Baseline, Median", "setting": "Week 18-Post-Infusion, n=11", "value": -8.80, "unit": "mg/dL"},
      {"measurement": "Serum Uric Acid, Observed, Mean (SD)", "setting": "Week 18-Post-Infusion, n=11", "value": "0.30 (0.000) mg/dL"},
      {"measurement": "Serum Uric Acid, Observed, Median", "setting": "Week 18-Post-Infusion, n=11", "value": 0.30, "unit": "mg/dL"},
      {"measurement": "sUA <6 mg/dL, n (%)", "setting": "Week 18-Post-Infusion, n=11", "value": "11 (100%)"},
      {"measurement": "Serum Uric Acid, Change from Baseline, Mean (SD)", "setting": "Week 18-Pre-Infusion, n=11", "value": "−8.97 (2.810) mg/dL"},
      {"measurement": "Serum Uric Acid, Change from Baseline, Median", "setting": "Week 18-Pre-Infusion, n=11", "value": -8.80, "unit": "mg/dL"},
      {"measurement": "Serum Uric Acid, Observed, Mean (SD)", "setting": "Week 18-Pre-Infusion, n=11", "value": "0.30 (0.000) mg/dL"},
      {"measurement": "Serum Uric Acid, Observed, Median", "setting": "Week 18-Pre-Infusion, n=11", "value": 0.30, "unit": "mg/dL"},
      {"measurement": "sUA <6 mg/dL, n (%)", "setting": "Week 18-Pre-Infusion, n=11", "value": "11 (100%)"},
      {"measurement": "Serum Uric Acid, Change from Baseline, Mean (SD)", "setting": "Week 20-Post-Infusion, n=11", "value": "−8.97 (2.810) mg/dL"},
      {"measurement": "Serum Uric Acid, Change from Baseline, Median", "setting": "Week 20-Post-Infusion, n=11", "value": -8.80, "unit": "mg/dL"},
      {"measurement": "Serum Uric Acid, Observed, Mean (SD)", "setting": "Week 20-Post-Infusion, n=11", "value": "0.30 (0.000) mg/dL"},
      {"measurement": "Serum Uric Acid, Observed, Median", "setting": "Week 20-Post-Infusion, n=11", "value": 0.30, "unit": "mg/dL"},
      {"measurement": "sUA <6 mg/dL, n (%)", "setting": "Week 20-Post-Infusion, n=11", "value": "11 (100%)"},
      {"measurement": "Serum Uric Acid, Change from Baseline, Mean (SD)", "setting": "Week 20-Pre-Infusion, n=11", "value": "−8.97 (2.810) mg/dL"},
      {"measurement": "Serum Uric Acid, Change from Baseline, Median", "setting": "Week 20-Pre-Infusion, n=11", "value": -8.80, "unit": "mg/dL"},
      {"measurement": "Serum Uric Acid, Observed, Mean (SD)", "setting": "Week 20-Pre-Infusion, n=11", "value": "0.30 (0.000) mg/dL"},
      {"measurement": "Serum Uric Acid, Observed, Median", "setting": "Week 20-Pre-Infusion, n=11", "value": 0.30, "unit": "mg/dL"},
      {"measurement": "sUA <6 mg/dL, n (%)", "setting": "Week 20-Pre-Infusion, n=11", "value": "11 (100%)"},
      {"measurement": "Serum Uric Acid, Change from Baseline, Median", "setting": "Week 22-Post-Infusion, n=11", "value": -8.80, "unit": "mg/dL"},
      {"measurement": "Serum Uric Acid, Observed, Median", "setting": "Week 22-Post-Infusion, n=11", "value": 0.30, "unit": "mg/dL"},
      {"measurement": "sUA <6 mg/dL, n (%)", "setting": "Week 22-Post-Infusion, n=11", "value": "11 (100%)"},
      {"measurement": "Serum Uric Acid, Change from Baseline, Mean (SD)", "setting": "Week 22-Pre-Infusion, n=11", "value": "−8.97 (2.810) mg/dL"},
      {"measurement": "Serum Uric Acid, Change from Baseline, Median", "setting": "Week 22-Pre-Infusion, n=11", "value": -8.80, "unit": "mg/dL"},
      {"measurement": "Serum Uric Acid, Observed, Mean (SD)", "setting": "Week 22-Pre-Infusion, n=11", "value": "0.30 (0.000) mg/dL"},
      {"measurement": "Serum Uric Acid, Observed, Median", "setting": "Week 22-Pre-Infusion, n=11", "value": 0.30, "unit": "mg/dL"},
      {"measurement": "sUA <6 mg/dL, n (%)", "setting": "Week 22-Pre-Infusion, n=11", "value": "11(100%)"},
      {"measurement": "Serum Uric Acid, Change from Baseline, Mean (SD)", "setting": "Week 24-Post-Infusion, n=5", "value": "−9.18 (4.135) mg/dL"},
      {"measurement": "Serum Uric Acid, Change from Baseline, Median", "setting": "Week 24-Post-Infusion, n=5", "value": -9.30, "unit": "mg/dL"},
      {"measurement": "Serum Uric Acid, Observed, Mean (SD)", "setting": "Week 24-Post-Infusion, n=5", "value": "0.30 (0.000) mg/dL"},
      {"measurement": "Serum Uric Acid, Observed, Median", "setting": "Week 24-Post-Infusion, n=5", "value": 0.30, "unit": "mg/dL"},
      {"measurement": "sUA <6 mg/dL, n (%)", "setting": "Week 24-Post-Infusion, n=5", "value": "5 (100%)"},
      {"measurement": "Serum Uric Acid, Change from Baseline, Mean (SD)", "setting": "Week 24-Pre-Infusion, n=11", "value": "−8.97 (2.810) mg/dL"},
      {"measurement": "Serum Uric Acid, Change from Baseline, Median", "setting": "Week 24-Pre-Infusion, n=11", "value": -8.80, "unit": "mg/dL"},
      {"measurement": "Serum Uric Acid, Observed, Mean (SD)", "setting": "Week 24-Pre-Infusion, n=11", "value": "0.30 (0.000) mg/dL"},
      {"measurement": "Serum Uric Acid, Observed, Median", "setting": "Week 24-Pre-Infusion, n=11", "value": 0.30, "unit": "mg/dL"},
      {"measurement": "sUA <6 mg/dL, n (%)", "setting": "Week 24-Pre-Infusion, n=11", "value": "11 (100%)"},
      {"measurement": "Serum Uric Acid, Change from Baseline, Mean (SD)", "setting": "Week 26-Pre-Infusion, n=8", "value": "−9.11 (3.293) mg/dL"},
      {"measurement": "Serum Uric Acid, Change from Baseline, Median", "setting": "Week 26-Pre-Infusion, n=8", "value": -8.95, "unit": "mg/dL"},
      {"measurement": "Serum Uric Acid, Observed, Mean (SD)", "setting": "Week 26-Pre-Infusion, n=8", "value": "0.30 (0.000) mg/dL"},
      {"measurement": "Serum Uric Acid, Observed, Median", "setting": "Week 26-Pre-Infusion, n=8", "value": 0.30, "unit": "mg/dL"},
      {"measurement": "sUA <6 mg/dL, n (%)", "setting": "Week 26-Pre-Infusion, n=8", "value": "8 (100%)"},
      {"measurement": "Serum Uric Acid, Change from Baseline, Mean (SD)", "setting": "Week 28-Pre-Infusion, n=8", "value": "−9.11 (3.293) mg/dL"},
      {"measurement": "Serum Uric Acid, Change from Baseline, Median", "setting": "Week 28-Pre-Infusion, n=8", "value": -8.95, "unit": "mg/dL"}
    ]}
  ]
}
